13 compounds from PubChem BioAssay (NCI) can be followed below.

Some test systems named below: SK-MEL-28 melanoma; SK-MEL-2 melanoma; SK-OV-3 ovarian; HT29 colon; MALME-3M melanoma; A549 NSCLC; SF-539 CNS; SR leukemia; T-47D breast; OVCAR-5 ovarian.
Holding throughout (test): inhibition of tumour cell growth, NCI panel, 48 h

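Values below derive from 48-hour exposures of cells grown in 96-well plates, with endpoints linearly interpolated between the two concentrations bracketing the appropriate inhibition level. Here, GI50 denotes the concentration required for 50% inhibition of growth. TGI: total growth inhibition.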

`O=c1oc2ccccc2cc1-c1cn2cc(Cl)ccc2n1`: the TGI is 17.9 µM in the assay with SK-MEL-28 melanoma; 24.9 µM with SK-MEL-2 melanoma; 5.96 µM with SK-OV-3 ovarian; more than 59.8 µM in the assay on HT29 colon; 4.77 µM in the assay with MALME-3M melanoma; 16.8 µM in the assay with A549 NSCLC. For the same compound, the TGI with SF-539 CNS was 22.2 µM; in the assay on SR leukemia, more than 39.2 µM; in the assay on T-47D breast it was more than 54.9 µM; in the assay on OVCAR-5 ovarian, 33.3 µM.

As for `CSc1n[nH]c(N)c1C(=O)Nc1ccc(C)cc1`, the TGI in the assay with SK-MEL-28 melanoma, with SK-MEL-2 melanoma, in the assay on SK-OV-3 ovarian, with HT29 colon, in the assay with MALME-3M melanoma and in the assay with A549 NSCLC was more than 100 µM in each case. Also, the TGI was more than 100 µM in the assay with SF-539 CNS, more than 100 µM in the assay on SR leukemia, 94.8 µM in the assay on T-47D breast and more than 100 µM with OVCAR-5 ovarian.

On to `COC(=O)c1c(OC(C)=O)ccc2c1c1c(n2C)C(=O)c2ccccc2C1=O`, for which the TGI in the assay on SK-MEL-28 melanoma was more than 100 µM; in the assay with SK-MEL-2 melanoma, 96.1 µM; in the assay on SK-OV-3 ovarian, 46.2 µM; with HT29 colon, more than 100 µM; in the assay with MALME-3M melanoma it was 55.3 µM; in the assay with A549 NSCLC, 80.8 µM. The TGI is 47 µM with SF-539 CNS, more than 100 µM with SR leukemia, 36.9 µM with T-47D breast and more than 100 µM in the assay with OVCAR-5 ovarian.

`Cc1cc(N2CCCC2)nc(N(CCNc2ccnc3cc(Cl)ccc23)Cc2ccco2)n1`: the GI50 with SK-MEL-28 melanoma is 3.94 µM; in the assay on SK-MEL-2 melanoma, 18 µM; with SK-OV-3 ovarian it was 7.16 µM; in the assay with HT29 colon, 1.68 µM; in the assay with MALME-3M melanoma, 4.13 µM; in the assay with A549 NSCLC, 5.9 µM. The GI50 is 3.27 µM in the assay on SF-539 CNS, 1.8 µM in the assay with SR leukemia, 2.39 µM with T-47D breast and 4.93 µM in the assay with OVCAR-5 ovarian. In addition, the TGI was more than 100 µM in the assay with SK-MEL-28 melanoma; more than 100 µM in the assay with SK-MEL-2 melanoma; 38.8 µM in the assay with SK-OV-3 ovarian; more than 100 µM in the assay on HT29 colon; 80.7 µM with MALME-3M melanoma; more than 100 µM with A549 NSCLC. Moreover, the TGI in the assay with SF-539 CNS was 10.4 µM; with SR leukemia, 4.67 µM; in the assay on T-47D breast, 6.5 µM; in the assay with OVCAR-5 ovarian, more than 100 µM.

Regarding `c1ccc2c(c1)CCc1c-2n(CCN2CCOCC2)c2ccccc12`, the TGI in the assay on SK-MEL-28 melanoma was more than 100 µM; with SK-MEL-2 melanoma, 25.8 µM; with SK-OV-3 ovarian, 82.9 µM; in the assay with HT29 colon, 25.9 µM; with MALME-3M melanoma, 32.2 µM; in the assay on A549 NSCLC, more than 100 µM. The TGI in the assay with SF-539 CNS is more than 100 µM; with SR leukemia, 38.3 µM; in the assay with T-47D breast it was more than 100 µM; in the assay with OVCAR-5 ovarian, more than 100 µM.

On to `CC(C)(Oc1ccc(Cl)cc1)C(=O)N(C(=O)N1CCC(c2ccccc2)CC1)c1ccccc1`, for which the TGI in the assay on SK-MEL-28 melanoma, in the assay with SK-MEL-2 melanoma, with SK-OV-3 ovarian, in the assay with HT29 colon, with MALME-3M melanoma and with A549 NSCLC was more than 100 µM in each case. Besides, the TGI in the assay on SF-539 CNS was more than 100 µM; in the assay with SR leukemia, more than 100 µM; in the assay with T-47D breast, more than 30.3 µM; in the assay with OVCAR-5 ovarian, more than 100 µM.

As for `Oc1c([Si](c2ccccc2)(c2ccccc2)c2ccccc2)cc2ccccc2c1-c1c(O)c([Si](c2ccccc2)(c2ccccc2)c2ccccc2)cc2ccccc12`, the TGI in the assay with SK-MEL-28 melanoma, in the assay with SK-MEL-2 melanoma, in the assay with SK-OV-3 ovarian, with HT29 colon, in the assay with MALME-3M melanoma and with A549 NSCLC was more than 100 µM throughout. In addition, the TGI with SF-539 CNS, in the assay on SR leukemia, in the assay with T-47D breast and with OVCAR-5 ovarian was more than 100 µM throughout.

For the compound `O=C(Nc1nc2ccccc2s1)c1cc([N+](=O)[O-])ccc1Cl`, the TGI with SK-MEL-28 melanoma was more than 100 µM; with SK-MEL-2 melanoma, more than 100 µM; with SK-OV-3 ovarian it was more than 100 µM; in the assay with HT29 colon, 65.9 µM; in the assay with MALME-3M melanoma it was more than 100 µM; in the assay on A549 NSCLC, more than 100 µM. Further, the TGI with SF-539 CNS was 28.5 µM; in the assay with SR leukemia, more than 100 µM; in the assay with T-47D breast it was more than 100 µM; with OVCAR-5 ovarian, more than 100 µM.

For `O=C1c2cc3c(cc2CC12Cc1ccc4c(c1C2=O)CCCC4)CCCC3` (stereo not given), the TGI in the assay on SK-MEL-28 melanoma was more than 100 µM; in the assay with SK-MEL-2 melanoma, more than 100 µM; in the assay with SK-OV-3 ovarian it was 87.4 µM; with HT29 colon, more than 100 µM; in the assay on MALME-3M melanoma, more than 100 µM; with A549 NSCLC, more than 100 µM. The TGI in the assay on SF-539 CNS, in the assay with SR leukemia, with T-47D breast and in the assay on OVCAR-5 ovarian was more than 100 µM each time.

For the compound `Cc1c(NC(=O)CSC(=S)N2CCN(Cc3ccccc3)CC2)c(=O)n(-c2ccccc2)n1C`, the TGI in the assay on SK-MEL-28 melanoma, in the assay with SK-MEL-2 melanoma, in the assay with SK-OV-3 ovarian, in the assay with HT29 colon, in the assay with MALME-3M melanoma and in the assay on A549 NSCLC was more than 100 µM each time. In addition, the TGI with SF-539 CNS, with SR leukemia, with T-47D breast and in the assay with OVCAR-5 ovarian was more than 100 µM throughout.

Turning to `CCOc1cc(C2CC(c3ccc(NS(=O)(=O)c4cc([N+](=O)[O-])ccc4C)cc3)=NN2c2ccc([N+](=O)[O-])cc2[N+](=O)[O-])ccc1O` (stereo not given), the TGI is 89.4 µM in the assay on SK-MEL-28 melanoma; 44.3 µM with SK-MEL-2 melanoma; 10.4 µM in the assay with SK-OV-3 ovarian; more than 100 µM in the assay with HT29 colon; 23.2 µM in the assay on MALME-3M melanoma; 28.1 µM in the assay on A549 NSCLC. Moreover, the TGI with SF-539 CNS is 25.5 µM; in the assay with SR leukemia, more than 100 µM; in the assay on T-47D breast it was 60.2 µM; with OVCAR-5 ovarian, 60.3 µM.

Take `COc1cc(/C=C2/C[C@H]3[C@@H]4CC=C5C[C@@H](OC(C)=O)CC[C@]5(C)[C@H]4CC[C@]3(C)NC2=O)cc(OC)c1OC`: the TGI in the assay with SK-MEL-28 melanoma is 70.9 µM; with SK-MEL-2 melanoma, 52.4 µM; with SK-OV-3 ovarian it was 60.3 µM; in the assay with HT29 colon it was more than 100 µM; with MALME-3M melanoma it was 60.3 µM; in the assay with A549 NSCLC, 59.3 µM. Further, the TGI is 37.5 µM with SF-539 CNS, more than 100 µM in the assay on SR leukemia, 72.8 µM with T-47D breast and 92.2 µM in the assay on OVCAR-5 ovarian.

Take `CC1=NN(c2nc(N)nc(/C(C#N)=C/c3cccn3-c3cc(Cl)cc(Cl)c3)n2)C(C)(C)C1`: the TGI in the assay on SK-MEL-28 melanoma, in the assay with SK-MEL-2 melanoma, with SK-OV-3 ovarian, in the assay with HT29 colon, in the assay with MALME-3M melanoma and with A549 NSCLC was more than 100 µM each time. The TGI in the assay on SF-539 CNS, in the assay with SR leukemia, in the assay on T-47D breast and with OVCAR-5 ovarian was more than 100 µM each time.
